Structures are written as SMILES. Where a name gives a salt, the structure may show the parent alone.

One assay addresses T1, Recombinant human MAO-B (Homo sapiens, UniProt P27338).
T1 construct: purchased Sigma Aldrich
T1 sequence (P27338 1-520): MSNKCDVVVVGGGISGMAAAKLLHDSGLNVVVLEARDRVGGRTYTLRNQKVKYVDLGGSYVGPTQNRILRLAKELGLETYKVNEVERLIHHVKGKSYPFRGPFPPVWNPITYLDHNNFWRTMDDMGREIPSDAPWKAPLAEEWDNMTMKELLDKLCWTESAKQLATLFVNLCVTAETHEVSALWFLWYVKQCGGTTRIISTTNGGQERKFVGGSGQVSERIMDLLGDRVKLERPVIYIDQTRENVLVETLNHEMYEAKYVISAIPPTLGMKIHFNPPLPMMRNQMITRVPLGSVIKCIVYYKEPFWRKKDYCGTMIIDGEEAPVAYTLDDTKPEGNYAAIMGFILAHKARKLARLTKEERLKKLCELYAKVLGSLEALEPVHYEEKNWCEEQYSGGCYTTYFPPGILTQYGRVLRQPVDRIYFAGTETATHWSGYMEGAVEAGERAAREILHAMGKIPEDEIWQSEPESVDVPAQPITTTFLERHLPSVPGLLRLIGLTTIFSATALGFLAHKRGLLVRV
As to the kind of experiment: Human recombinant MAO-B inhibition. The settings on record: benzylamine 100 μM. The format is biochemical. The method, then: Method to Determine the Ability of Compounds of Formula I to Inhibit Human Recombinant MAO-B
The specificity of the compounds of this invention was tested by determining their ability to inhibit MAO-B activities in vitro. Recombinant human MAO-B (0.06 mg/mL; Sigma Aldrich) was used as source of MAO-B enzyme activities. The assay was performed in a similar way as for human SSAO/VAP-1 (Example 46) except, the substrate benzylamine was used at 100 μM.

Assay [1] concerns the target T2, human recombinant SSAO/VAP-1 (Homo sapiens, UniProt Q16853).
T2 construct: a cloned cDNA template corresponding to residues 34-763 of human SSAO/VAP-1; TEV cleavage site (N); made in house
T2 sequence (Q16853 34-763): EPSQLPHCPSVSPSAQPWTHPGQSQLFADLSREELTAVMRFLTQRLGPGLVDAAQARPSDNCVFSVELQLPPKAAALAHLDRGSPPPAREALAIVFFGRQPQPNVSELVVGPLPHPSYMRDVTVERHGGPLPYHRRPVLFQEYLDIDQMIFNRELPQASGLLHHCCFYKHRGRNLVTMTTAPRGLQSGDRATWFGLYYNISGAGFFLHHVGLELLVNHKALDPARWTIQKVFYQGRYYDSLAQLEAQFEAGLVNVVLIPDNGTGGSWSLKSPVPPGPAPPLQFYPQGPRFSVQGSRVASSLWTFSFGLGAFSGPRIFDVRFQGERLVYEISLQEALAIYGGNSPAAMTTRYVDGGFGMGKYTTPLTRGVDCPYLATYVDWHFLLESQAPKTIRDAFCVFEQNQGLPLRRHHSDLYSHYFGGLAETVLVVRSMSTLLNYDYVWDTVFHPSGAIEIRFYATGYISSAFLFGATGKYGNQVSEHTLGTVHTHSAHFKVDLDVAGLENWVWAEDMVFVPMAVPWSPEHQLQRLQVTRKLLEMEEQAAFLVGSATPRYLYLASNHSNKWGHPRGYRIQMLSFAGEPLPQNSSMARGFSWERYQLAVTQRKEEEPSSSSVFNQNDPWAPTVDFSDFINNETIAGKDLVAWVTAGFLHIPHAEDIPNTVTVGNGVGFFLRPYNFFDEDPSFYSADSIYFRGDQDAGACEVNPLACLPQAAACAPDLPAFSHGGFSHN
The assay can be described thus: Human recombinant SSAO/VAP-1 amine oxidase inhibition. In kind it is biochemical. To be noted: 30 min preincubation at 37° C., 600 μM benzylamine. How it is done: Method to Determine the Ability of Compounds of Formula I to Inhibit Human Recombinant SSAO/VAP-1
Human recombinant SSAO/VAP-1 amine oxidase activity was determined using the coupled colorimetric method as described for monoamine oxidase, copper-containing amine oxidases and related enzymes (Holt A. and Palcic M., A peroxidase-coupled continuous absorbance plate-reader assay for flavin monoamine oxidases, copper-containing amine oxidases and related enzymes. Nat Protoc 2006; 1: 2498-2505). Briefly, a cloned cDNA template corresponding to residues 34-763 of human SSAO/VAP-1, and incorporating a mouse Ig kappa (κ) signal sequence, N-terminal flag epitope tag and tobacco etch virus (TEV) cleavage site, was assembled in a mammalian expression vector (pLO-CMV) by Geneart AG. This vector containing human SSAO/VAP-1 residues was transfected into CHO-K1 glycosylation mutant cell line, Lec 8. A clone stably expressing human SSAO/VAP-1 was isolated and cultured in large scale. Active human SSAO/VAP-I was purified and recovered using immunoaffinity chromatography. This was used as the source for SSAO/VAP-1 activity. A high-throughput colorimetric assay was developed using either 96 or 384 well format. Briefly, in a standard 96 well plate assay 50 μL of purified human SSAO/VAP-1 (0.25 μg/mL) in 0.1 M sodium phosphate buffer (pH 7.4) was added into each well. Test compounds were dissolved in DMSO and tested in a Concentration Response Curve (CRC) with 4-11 data points, typically in the micromolar or nanomolar range after incubation with human SSAO/VAP-1 for 30 min at 37° C. After 30 min incubation, 50 μL of the reaction mixture containing 600 μM benzylamine (Sigma Aldrich), 120 μM Amplex Red (Sigma Aldrich) and 1.5 U/mL horseradish peroxidase (Sigma Aldrich) prepared in 0.1 M sodium phosphate buffer (pH 7.4) were added to the corresponding well. The fluorescence unit (RFU) was read every 2.5 min for 30 min at 37° C. excitation 565 nm and emission 590 (Optima; BMG labtech). The slope of the kinetics for each well was calculated using MARS data analysis software (BMG labtech) and this value was used to deduce the IC50 value (Dotmatics).

`Cc1nn(C/C(F)=C/CN)c(C)c1Cc1ccc(S(C)(=O)=O)cc1Cl` [Compound 12, (Z)-4-(4-(2-chloro-4-(methylsulfonyl)benzyl)-3,5-dimethyl-1H-pyrazol-1-yl)-3-fluorobut-2-en-1-amine hydrochloride]: the 50% inhibitory concentration (IC50) on Recombinant human MAO-B was over 30 µM; in assay [1], under 10 µM.

As for `CCc1nn(C/C(F)=C/CN)c(CC)c1Cc1ccc(S(=O)(=O)N(C)C)cc1` [Compound 13, (Z)-4-((1-(4-amino-2-fluorobut-2-en-1-yl)-3,5-diethyl-1H-pyrazol-4-yl)methyl)-N,N-dimethyl benzenesulfonamide hydrochloride], the half-maximal inhibitory concentration (IC50) (at Recombinant human MAO-B; in assay [1]) was over 30 µM each time.

As to `Cc1nn(C/C(F)=C/CN)c(C)c1Cc1ccc(C(=O)N(C)C)cc1` [Compound 14, (Z)-4-((1-(4-amino-2-fluorobut-2-en-1-yl)-3,5-dimethyl-1H-pyrazol-4-yl)methyl)-N,N-dimethylbenzamide hydrochloride], the half-inhibitory concentration (IC50) (on Recombinant human MAO-B; in assay [1]) was over 30 µM in each case.

Take `Cc1nn(C/C(F)=C/CN)c(C)c1Cc1ccc(S(=O)(=O)N(C)C)c(Cl)c1` [Compound 15, (Z)-4-((1-(4-amino-2-fluorobut-2-en-1-yl)-3,5-dimethyl-1H-pyrazol-4-yl)methyl)-2-chloro-N,N-dimethylbenzenesulfonamide hydrochloride]: the IC50 on Recombinant human MAO-B was over 30 µM; in assay [1], under 10 µM.

Consider `Cc1nn(C/C(F)=C/CN)c(C)c1Cc1ccc(S(C)(=O)=O)c(Cl)c1` [Compound 16, (Z)-4-(4-(3-chloro-4-(methylsulfonyl)benzyl)-3,5-dimethyl-1H-pyrazol-1-yl)-3-fluorobut-2-en-1-amine hydrochloride], for which the concentration for half-maximal inhibition (IC50) on Recombinant human MAO-B was over 30 µM; in assay [1] it was over 10 µM.

Consider `Cc1nn(C/C(F)=C/CN)c(C)c1Cc1ccc(S(=O)(=O)N(C)C)c(OC(F)(F)F)c1` [Compound 17, (Z)-4-((1-(4-amino-2-fluorobut-2-en-1-yl)-3,5-dimethyl-1H-pyrazol-4-yl)methyl)-N,N-dimethyl-2-(trifluoromethoxy)benzenesulfonamide hydrochloride], for which the figures for the IC50 (on Recombinant human MAO-B; in assay [1]) were over 30 µM and over 10 µM, respectively.

For the molecule `Cc1nn(C/C(F)=C/CN)c(C)c1Cc1ccc(S(=O)(=O)N(C)C)c(C(F)(F)F)c1` [Compound 18, (Z)-4-((1-(4-amino-2-fluorobut-2-en-1-yl)-3,5-dimethyl-1H-pyrazol-4-yl)methyl)-N,N-dimethyl-2-(trifluoromethyl)benzenesulfonamide hydrochloride], the IC50 (on Recombinant human MAO-B; in assay [1]) was over 30 µM throughout.

`Cc1nn(C/C(F)=C/CN)c(C)c1Cc1cc(F)c(S(=O)(=O)N(C)C)cc1F` [Compound 19, (Z)-4-((1-(4-amino-2-fluorobut-2-en-1-yl)-3,5-dimethyl-1H-pyrazol-4-yl)methyl)-2,5-difluoro-N,N-dimethylbenzenesulfonamide hydrochloride]: the half-maximal inhibitory concentration (IC50) (at Recombinant human MAO-B; in assay [1]) was over 30 µM throughout.

On to `CNS(=O)(=O)c1ccc(Cn2nc(C)c(C/C(F)=C/CN)c2C)c(Cl)c1` [Compound 20, (Z)-4-((4-(4-amino-2-fluorobut-2-en-1-yl)-3,5-dimethyl-1H-pyrazol-1-yl)methyl)-3-chloro-N-methylbenzenesulfonamide hydrochloride], for which the IC50 on Recombinant human MAO-B was over 30 µM; in assay [1], under 10 µM.

For the molecule `Cc1nn(Cc2ccc(S(C)(=O)=O)cc2Cl)c(C)c1C/C(F)=C/CN` [Compound 21, (Z)-4-(1-(2-chloro-4-(methylsulfonyl)benzyl)-3,5-dimethyl-1H-pyrazol-4-yl)-3-fluorobut-2-en-1-amine hydrochloride], the IC50 on Recombinant human MAO-B is over 30 µM; in assay [1], under 10 µM.

On to `CNS(=O)(=O)c1ccc(Cn2nc(C)c(C/C(F)=C/CN)c2C)cc1Cl` [Compound 22, (Z)-4-((4-(4-amino-2-fluorobut-2-en-1-yl)-3,5-dimethyl-1H-pyrazol-1-yl)methyl)-2-chloro-N-methylbenzenesulfonamide hydrochloride], for which the IC50 at Recombinant human MAO-B is over 30 µM; in assay [1], over 10 µM.

Consider `CNS(=O)(=O)c1ccc(Cn2nc(C)c(C/C(F)=C/CN)c2C)c(C(F)(F)F)c1` [Compound 23, (Z)-4-((4-(4-amino-2-fluorobut-2-en-1-yl)-3,5-dimethyl-1H-pyrazol-1-yl)methyl)-N-methyl-3-(trifluoromethyl)benzenesulfonamide hydrochloride], for which the IC50 (at Recombinant human MAO-B; in assay [1]) was over 30 µM in each case.

As for `Cc1nn(Cc2ccc(S(C)(=O)=O)c(Cl)c2)c(C)c1C/C(F)=C/CN` [Compound 24, (Z)-4-(1-(3-chloro-4-(methylsulfonyl)benzyl)-3,5-dimethyl-1H-pyrazol-4-yl)-3-fluorobut-2-en-1-amine hydrochloride], the IC50 (on Recombinant human MAO-B; in assay [1]) was over 30 µM throughout.

As to `Cc1nn(Cc2cc(F)c(S(=O)(=O)N(C)C)cc2F)c(C)c1C/C(F)=C/CN` [Compound 25, (Z)-4-((4-(4-amino-2-fluorobut-2-en-1-yl)-3,5-dimethyl-1H-pyrazol-1-yl)methyl)-2,5-difluoro-N,N-dimethylbenzenesulfonamide hydrochloride], the IC50 (on Recombinant human MAO-B; in assay [1]) was over 30 µM each time.

For the molecule `CNS(=O)(=O)c1cc(F)c(Cn2nc(C)c(C/C(F)=C/CN)c2C)cc1F` [Compound 26, (Z)-4-((4-(4-amino-2-fluorobut-2-en-1-yl)-3,5-dimethyl-1H-pyrazol-1-yl)methyl)-2,5-difluoro-N-methylbenzenesulfonamide hydrochloride], the IC50 on Recombinant human MAO-B was over 30 µM; in assay [1], under 10 µM.

For `CCOC(=O)c1c(Cc2ccc(S(=O)(=O)N(C)C)cc2)c(C)nn1C/C(F)=C/CN` [Compound 27, (Z)-ethyl 1-(4-amino-2-fluorobut-2-enyl)-4-(4-(N,N-dimethylsulfamoyl)benzyl)-3-methyl-1H-pyrazole-5-carboxylate hydrochloride], the IC50 (on Recombinant human MAO-B; in assay [1]) was over 30 µM throughout.

`CCOC(=O)c1nn(C/C(F)=C/CN)c(C)c1Cc1ccc(S(=O)(=O)N(C)C)cc1` [Compound 28, (Z)-ethyl 1-(4-amino-2-fluorobut-2-enyl)-4-(4-(N,N-dimethylsulfamoyl)benzyl)-5-methyl-1H-pyrazole-3-carboxylate hydrochloride]: the half-maximal inhibitory concentration (IC50) (on Recombinant human MAO-B; in assay [1]) was over 30 µM throughout.

What is called IC50 is the midpoint of a concentration-inhibition curve.

The values are drawn from patent US20200069648A1, “HALOALLYLAMINE PYRAZOLE DERIVATIVE INHIBITORS OF LYSYL OXIDASES AND USES THEREOF” (Pharmaxis Ltd., priority 2017, published 2020).
